Measured values as given in ChEMBL document CHEMBL1201862, “PubChem BioAssay data set” (2004).
The source made the active and inactive calls.

Experiments:
Format in all cases: functional
[1] = molecular target: Activated CDC42 kinase 1 (Homo sapiens, UniProt Q07912); assay: Navigating the Kinome. Panel member name: ACK1
[2] = molecular target: 5'-AMP-activated protein kinase catalytic subunit alpha-1 (Homo sapiens, UniProt Q13131)
[3] = molecular target: Hepatocyte growth factor receptor (Homo sapiens, UniProt P08581);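 also: kinase panel profiling across the kinome, with MET as the panel member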
[4] = molecular target: Macrophage-stimulating protein receptor (Homo sapiens, UniProt Q04912); assay: Navigating the Kinome. Panel member name: MST1R
[5] = molecular target: T1, Aurora kinase A (Homo sapiens, UniProt O14965);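 also: value from the Navigating the Kinome kinase panel profiling, panel entry STK6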
T1 sequence (O14965 whole entry): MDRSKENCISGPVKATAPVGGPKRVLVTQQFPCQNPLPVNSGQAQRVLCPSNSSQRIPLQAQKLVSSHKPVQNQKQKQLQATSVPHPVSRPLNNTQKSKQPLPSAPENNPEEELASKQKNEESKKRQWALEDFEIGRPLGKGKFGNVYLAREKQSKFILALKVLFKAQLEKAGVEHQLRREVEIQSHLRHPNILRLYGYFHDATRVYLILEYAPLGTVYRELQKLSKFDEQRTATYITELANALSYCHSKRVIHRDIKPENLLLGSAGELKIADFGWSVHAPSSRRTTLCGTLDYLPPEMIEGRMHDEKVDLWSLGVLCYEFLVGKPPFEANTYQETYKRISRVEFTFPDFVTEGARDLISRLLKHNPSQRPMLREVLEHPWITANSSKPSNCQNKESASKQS

[6] = molecular target: T2, Tyrosine-protein kinase receptor TYRO3 (Homo sapiens, UniProt Q06418);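 also: TYRO3 value obtained as one member of a kinome-wide profiling panel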
T2 sequence (Q06418 whole entry): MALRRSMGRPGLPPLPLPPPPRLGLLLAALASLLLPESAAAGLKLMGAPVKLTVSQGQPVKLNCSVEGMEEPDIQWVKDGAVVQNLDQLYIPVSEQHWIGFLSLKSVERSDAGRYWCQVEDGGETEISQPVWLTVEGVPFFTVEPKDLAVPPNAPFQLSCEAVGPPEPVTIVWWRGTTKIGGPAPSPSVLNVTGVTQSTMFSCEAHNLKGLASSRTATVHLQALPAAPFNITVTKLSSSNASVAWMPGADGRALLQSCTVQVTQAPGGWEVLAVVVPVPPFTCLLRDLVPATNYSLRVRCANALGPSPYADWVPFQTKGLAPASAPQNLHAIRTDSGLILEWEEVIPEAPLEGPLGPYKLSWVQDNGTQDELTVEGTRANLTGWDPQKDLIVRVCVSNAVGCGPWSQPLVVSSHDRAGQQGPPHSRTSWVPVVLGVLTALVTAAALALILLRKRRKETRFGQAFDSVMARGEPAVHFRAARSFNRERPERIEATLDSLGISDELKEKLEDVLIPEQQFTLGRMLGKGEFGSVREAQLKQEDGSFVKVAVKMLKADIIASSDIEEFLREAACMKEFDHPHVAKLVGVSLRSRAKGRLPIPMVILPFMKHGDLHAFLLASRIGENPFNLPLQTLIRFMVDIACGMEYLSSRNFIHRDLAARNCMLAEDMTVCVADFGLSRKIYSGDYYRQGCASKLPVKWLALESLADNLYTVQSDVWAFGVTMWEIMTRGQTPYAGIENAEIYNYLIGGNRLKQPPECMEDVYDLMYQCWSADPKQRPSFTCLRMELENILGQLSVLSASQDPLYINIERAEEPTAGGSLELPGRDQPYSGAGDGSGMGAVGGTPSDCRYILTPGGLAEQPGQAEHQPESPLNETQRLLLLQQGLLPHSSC

[7] = molecular target: Dual specificity mitogen-activated protein kinase kinase 2 (Homo sapiens, UniProt P36507); assay: Navigating the Kinome. Panel member name: MAP2K2
[8] = molecular target: Tyrosine-protein kinase BTK (Homo sapiens, UniProt Q06187)
[9] = molecular target: Mitogen-activated protein kinase 8 (Homo sapiens, UniProt P45983);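 also: value comes from one member of a kinome-wide kinase profiling panel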
[10] = molecular target: Serine/threonine-protein kinase PAK 4 (Homo sapiens, UniProt O96013);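 also: value obtained within a kinome profiling panel in which PAK4 was one of the panel members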
[11] = molecular target: T3, Serine/threonine-protein kinase D3 (Homo sapiens, UniProt O94806);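 also: determined within a kinase panel screen, with PRKCN as the panel member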
T3 sequence (O94806 whole entry): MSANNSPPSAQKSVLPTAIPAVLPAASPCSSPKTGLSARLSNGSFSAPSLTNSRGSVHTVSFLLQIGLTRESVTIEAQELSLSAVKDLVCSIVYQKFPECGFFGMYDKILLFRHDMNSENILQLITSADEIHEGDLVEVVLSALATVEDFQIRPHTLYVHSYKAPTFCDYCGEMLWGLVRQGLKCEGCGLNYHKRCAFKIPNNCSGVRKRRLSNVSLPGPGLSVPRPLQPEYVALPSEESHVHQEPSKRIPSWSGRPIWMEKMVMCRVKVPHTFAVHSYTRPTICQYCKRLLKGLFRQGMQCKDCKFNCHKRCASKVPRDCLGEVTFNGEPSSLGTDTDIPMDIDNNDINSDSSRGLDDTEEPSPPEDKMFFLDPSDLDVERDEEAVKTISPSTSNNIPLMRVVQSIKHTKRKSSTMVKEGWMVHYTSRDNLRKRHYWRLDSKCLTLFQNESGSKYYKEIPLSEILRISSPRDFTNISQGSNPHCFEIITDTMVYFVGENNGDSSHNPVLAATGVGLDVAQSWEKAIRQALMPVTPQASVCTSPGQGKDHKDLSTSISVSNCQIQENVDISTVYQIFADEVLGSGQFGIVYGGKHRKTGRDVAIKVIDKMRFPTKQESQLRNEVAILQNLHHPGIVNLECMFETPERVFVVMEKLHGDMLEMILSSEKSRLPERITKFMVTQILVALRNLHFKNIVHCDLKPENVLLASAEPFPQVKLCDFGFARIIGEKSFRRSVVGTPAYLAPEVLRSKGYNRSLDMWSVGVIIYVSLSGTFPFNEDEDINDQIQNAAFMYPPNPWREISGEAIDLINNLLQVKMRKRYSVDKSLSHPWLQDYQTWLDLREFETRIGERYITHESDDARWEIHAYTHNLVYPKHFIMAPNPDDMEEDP

[12] = molecular target: Serine/threonine-protein kinase pim-1 (Homo sapiens, UniProt P11309)
Chain of Serine/threonine-protein kinase pim-1 (P11309 whole entry): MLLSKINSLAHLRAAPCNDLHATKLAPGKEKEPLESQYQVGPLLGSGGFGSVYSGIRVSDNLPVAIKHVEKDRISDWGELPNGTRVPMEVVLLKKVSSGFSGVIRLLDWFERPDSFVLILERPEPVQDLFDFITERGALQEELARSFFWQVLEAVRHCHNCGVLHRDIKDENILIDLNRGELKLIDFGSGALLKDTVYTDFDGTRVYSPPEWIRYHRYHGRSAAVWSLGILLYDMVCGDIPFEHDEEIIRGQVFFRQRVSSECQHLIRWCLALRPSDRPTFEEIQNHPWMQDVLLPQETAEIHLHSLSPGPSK

Chain of Mitogen-activated protein kinase 8 (P45983 whole entry): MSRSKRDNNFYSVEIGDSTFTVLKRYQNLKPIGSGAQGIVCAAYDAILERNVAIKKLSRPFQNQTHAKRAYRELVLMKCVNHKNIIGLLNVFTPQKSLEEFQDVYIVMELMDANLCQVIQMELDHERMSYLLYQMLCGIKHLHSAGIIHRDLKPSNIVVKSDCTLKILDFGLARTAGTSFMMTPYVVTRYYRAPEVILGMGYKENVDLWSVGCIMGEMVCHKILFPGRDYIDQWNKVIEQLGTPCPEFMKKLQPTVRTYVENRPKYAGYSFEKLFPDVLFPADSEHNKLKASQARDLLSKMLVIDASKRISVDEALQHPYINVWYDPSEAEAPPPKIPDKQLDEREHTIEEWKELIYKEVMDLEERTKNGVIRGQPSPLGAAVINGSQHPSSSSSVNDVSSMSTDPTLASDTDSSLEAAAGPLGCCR
Chain of 5'-AMP-activated protein kinase catalytic subunit alpha-1 (Q13131 whole entry): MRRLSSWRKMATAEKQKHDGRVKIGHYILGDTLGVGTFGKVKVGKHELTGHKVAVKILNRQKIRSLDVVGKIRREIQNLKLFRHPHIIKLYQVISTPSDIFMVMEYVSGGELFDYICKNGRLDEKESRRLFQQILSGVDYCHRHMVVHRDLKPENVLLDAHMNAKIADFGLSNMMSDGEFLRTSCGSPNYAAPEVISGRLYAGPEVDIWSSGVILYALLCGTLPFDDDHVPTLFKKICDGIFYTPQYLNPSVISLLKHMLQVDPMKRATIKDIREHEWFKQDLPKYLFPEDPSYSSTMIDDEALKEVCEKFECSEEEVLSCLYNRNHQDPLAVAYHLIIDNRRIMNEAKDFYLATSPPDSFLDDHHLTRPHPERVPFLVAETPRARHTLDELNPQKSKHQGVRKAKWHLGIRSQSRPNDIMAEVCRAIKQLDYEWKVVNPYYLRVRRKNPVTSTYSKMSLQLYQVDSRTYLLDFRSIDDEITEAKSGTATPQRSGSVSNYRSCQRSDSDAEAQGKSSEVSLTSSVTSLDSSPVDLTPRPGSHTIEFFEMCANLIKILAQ
Chain of Dual specificity mitogen-activated protein kinase kinase 2 (P36507 whole entry): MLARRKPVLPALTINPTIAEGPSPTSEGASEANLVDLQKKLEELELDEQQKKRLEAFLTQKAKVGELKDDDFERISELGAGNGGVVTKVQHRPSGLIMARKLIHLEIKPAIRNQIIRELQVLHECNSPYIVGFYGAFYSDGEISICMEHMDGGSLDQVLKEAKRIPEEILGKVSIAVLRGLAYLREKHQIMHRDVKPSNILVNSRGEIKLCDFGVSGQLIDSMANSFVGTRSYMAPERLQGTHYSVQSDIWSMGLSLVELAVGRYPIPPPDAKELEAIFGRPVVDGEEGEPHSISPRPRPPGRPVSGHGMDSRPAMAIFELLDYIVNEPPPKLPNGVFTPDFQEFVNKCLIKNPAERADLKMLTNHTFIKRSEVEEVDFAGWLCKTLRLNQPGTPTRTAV
Chain of Macrophage-stimulating protein receptor (Q04912 25-304 limits assumed): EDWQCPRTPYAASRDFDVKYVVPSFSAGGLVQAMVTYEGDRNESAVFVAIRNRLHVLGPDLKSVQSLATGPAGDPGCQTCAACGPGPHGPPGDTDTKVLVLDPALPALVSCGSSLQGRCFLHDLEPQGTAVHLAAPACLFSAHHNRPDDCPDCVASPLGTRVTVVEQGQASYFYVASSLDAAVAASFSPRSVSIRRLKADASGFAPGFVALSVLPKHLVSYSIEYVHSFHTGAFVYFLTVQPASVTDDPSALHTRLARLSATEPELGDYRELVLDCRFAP
Chain of Macrophage-stimulating protein receptor (Q04912 310-1400 limits assumed): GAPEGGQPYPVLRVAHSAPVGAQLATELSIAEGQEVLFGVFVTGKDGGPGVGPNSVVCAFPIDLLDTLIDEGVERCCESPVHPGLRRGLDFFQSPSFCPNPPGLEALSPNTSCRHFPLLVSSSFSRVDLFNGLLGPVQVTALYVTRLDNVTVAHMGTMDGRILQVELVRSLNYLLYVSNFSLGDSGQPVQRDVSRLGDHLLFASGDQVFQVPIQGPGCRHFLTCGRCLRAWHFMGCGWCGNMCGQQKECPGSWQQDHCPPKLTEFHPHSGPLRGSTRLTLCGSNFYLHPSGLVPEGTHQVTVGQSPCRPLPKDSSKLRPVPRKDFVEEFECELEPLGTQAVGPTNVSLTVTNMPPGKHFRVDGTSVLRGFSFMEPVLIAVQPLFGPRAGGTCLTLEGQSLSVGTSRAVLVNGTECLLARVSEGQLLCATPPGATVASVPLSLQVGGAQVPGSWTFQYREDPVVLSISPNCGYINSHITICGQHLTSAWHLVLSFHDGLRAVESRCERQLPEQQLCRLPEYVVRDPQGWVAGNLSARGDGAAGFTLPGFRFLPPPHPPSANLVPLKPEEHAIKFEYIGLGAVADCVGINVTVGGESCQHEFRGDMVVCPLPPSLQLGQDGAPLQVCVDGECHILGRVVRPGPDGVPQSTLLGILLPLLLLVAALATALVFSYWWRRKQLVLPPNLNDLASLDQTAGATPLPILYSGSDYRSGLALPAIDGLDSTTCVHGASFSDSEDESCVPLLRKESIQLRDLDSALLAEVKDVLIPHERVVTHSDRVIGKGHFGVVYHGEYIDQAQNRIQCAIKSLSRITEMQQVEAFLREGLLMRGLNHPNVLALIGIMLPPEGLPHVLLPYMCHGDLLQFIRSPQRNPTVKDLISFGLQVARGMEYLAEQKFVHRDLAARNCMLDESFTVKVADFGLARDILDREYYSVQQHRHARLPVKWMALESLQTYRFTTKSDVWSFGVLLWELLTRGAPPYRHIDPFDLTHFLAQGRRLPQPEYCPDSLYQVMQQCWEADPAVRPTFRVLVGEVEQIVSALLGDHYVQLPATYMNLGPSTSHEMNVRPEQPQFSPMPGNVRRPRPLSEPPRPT
Chain of Hepatocyte growth factor receptor (P08581 whole entry): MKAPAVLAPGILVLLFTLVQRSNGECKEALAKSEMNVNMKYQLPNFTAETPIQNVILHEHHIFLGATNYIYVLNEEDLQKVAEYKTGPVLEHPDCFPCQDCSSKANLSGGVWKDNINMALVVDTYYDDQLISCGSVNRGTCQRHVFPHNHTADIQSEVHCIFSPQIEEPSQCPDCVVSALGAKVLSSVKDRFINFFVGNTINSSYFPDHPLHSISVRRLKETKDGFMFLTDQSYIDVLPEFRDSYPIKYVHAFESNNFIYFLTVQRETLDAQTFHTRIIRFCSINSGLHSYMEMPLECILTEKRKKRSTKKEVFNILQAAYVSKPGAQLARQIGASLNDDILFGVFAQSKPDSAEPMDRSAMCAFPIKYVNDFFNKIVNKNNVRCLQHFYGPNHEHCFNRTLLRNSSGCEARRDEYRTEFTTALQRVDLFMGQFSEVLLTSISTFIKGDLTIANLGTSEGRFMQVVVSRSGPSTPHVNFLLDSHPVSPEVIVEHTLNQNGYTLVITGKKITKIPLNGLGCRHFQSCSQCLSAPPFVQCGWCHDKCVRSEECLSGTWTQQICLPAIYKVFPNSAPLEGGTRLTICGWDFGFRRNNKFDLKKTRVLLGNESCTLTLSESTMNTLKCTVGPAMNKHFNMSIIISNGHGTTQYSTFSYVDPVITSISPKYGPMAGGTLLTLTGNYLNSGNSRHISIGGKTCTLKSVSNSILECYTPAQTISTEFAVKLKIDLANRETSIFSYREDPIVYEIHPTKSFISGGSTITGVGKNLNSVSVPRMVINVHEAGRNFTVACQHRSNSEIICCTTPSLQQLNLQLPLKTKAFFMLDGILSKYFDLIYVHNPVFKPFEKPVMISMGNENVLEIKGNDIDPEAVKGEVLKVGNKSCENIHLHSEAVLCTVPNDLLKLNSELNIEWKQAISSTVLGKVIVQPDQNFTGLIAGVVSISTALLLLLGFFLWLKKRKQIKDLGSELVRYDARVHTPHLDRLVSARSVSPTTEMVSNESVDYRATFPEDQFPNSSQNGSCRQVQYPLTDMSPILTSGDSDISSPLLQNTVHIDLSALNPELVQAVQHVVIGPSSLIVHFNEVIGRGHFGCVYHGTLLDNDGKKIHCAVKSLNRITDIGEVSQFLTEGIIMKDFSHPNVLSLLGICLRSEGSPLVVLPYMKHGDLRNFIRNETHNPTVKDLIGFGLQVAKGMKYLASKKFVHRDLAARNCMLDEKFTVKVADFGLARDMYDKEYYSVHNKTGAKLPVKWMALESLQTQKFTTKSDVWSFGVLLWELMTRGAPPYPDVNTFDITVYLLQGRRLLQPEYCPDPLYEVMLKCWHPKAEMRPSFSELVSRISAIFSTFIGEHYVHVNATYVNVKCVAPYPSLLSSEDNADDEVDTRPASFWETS
Chain of Serine/threonine-protein kinase PAK 4 (O96013 whole entry): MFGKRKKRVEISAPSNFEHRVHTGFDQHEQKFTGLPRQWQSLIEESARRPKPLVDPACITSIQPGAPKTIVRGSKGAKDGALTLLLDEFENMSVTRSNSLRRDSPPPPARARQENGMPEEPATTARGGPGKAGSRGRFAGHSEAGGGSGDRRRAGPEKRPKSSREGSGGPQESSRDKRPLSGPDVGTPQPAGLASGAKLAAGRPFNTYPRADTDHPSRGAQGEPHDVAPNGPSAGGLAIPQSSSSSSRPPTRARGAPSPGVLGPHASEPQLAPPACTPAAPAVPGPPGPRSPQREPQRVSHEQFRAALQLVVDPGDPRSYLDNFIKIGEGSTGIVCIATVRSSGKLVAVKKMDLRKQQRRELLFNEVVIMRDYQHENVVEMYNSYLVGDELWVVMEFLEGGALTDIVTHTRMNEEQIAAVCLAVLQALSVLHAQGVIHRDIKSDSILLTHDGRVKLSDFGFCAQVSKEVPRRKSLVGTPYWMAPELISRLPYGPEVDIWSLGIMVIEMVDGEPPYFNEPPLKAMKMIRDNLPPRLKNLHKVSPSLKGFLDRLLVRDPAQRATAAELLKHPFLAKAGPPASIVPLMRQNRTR

SMILES: CCCCC(=O)Nc1cc(-c2c[nH]c3ncccc23)cc(Cl)n1
- Ki [1]: > 3.98 µM (inactive)
- Ki [2]: > 3.16 µM (inactive)
- Ki [3]: > 2.51 µM (inactive)
- Ki [4]: > 3.98 µM (inactive)
- Ki [5]: > 1.58 µM (inactive)
- Ki [6]: > 3.16 µM (inactive)
- Ki [7]: > 3.98 µM (inactive)
- Ki [8]: > 6.31 µM (inactive)
- Ki [9]: > 5.01 µM (inactive)
- Ki [10]: > 5.01 µM (inactive)
- Ki [11]: > 3.98 µM (inactive)
- Ki [12]: > 6.31 µM (inactive)

SMILES: Oc1ccc(-c2nc(-c3ccncc3)c(-c3ccc(F)cc3)[nH]2)cc1 [SB-202190]
- Ki [1]: > 3.98 µM (inactive)
- Ki [2]: > 3.16 µM (inactive)
- Ki [3]: > 2.51 µM (inactive)
- Ki [4]: > 3.98 µM (inactive)
- Ki [5]: > 1.58 µM (inactive)
- Ki [6]: > 3.16 µM (inactive)
- Ki [7]: > 3.98 µM (inactive)
- Ki [8]: > 6.31 µM (inactive)
- Ki [9]: 0.501 µM (active)
- Ki [10]: > 5.01 µM (inactive)
- Ki [11]: 2.51 µM (active)
- Ki [12]: > 6.31 µM (inactive)

SMILES: COc1cccc(C(C)NC(=O)c2sc(-c3ccncc3)nc2C)c1 (stereo unspecified)
- Ki [1]: > 3.98 µM (inactive)
- Ki [2]: > 3.16 µM (inactive)
- Ki [3]: > 2.51 µM (inactive)
- Ki [4]: > 3.98 µM (inactive)
- Ki [5]: > 1.58 µM (inactive)
- Ki [6]: > 3.16 µM (inactive)
- Ki [7]: > 3.98 µM (inactive)
- Ki [8]: > 6.31 µM (inactive)
- Ki [9]: > 5.01 µM (inactive)
- Ki [10]: > 5.01 µM (inactive)
- Ki [11]: > 3.98 µM (inactive)
- Ki [12]: > 6.31 µM (inactive)
